{
  "source": "patent US20260034277A1",
  "about": "“SYSTEMS AND METHODS FOR PATHOGEN INACTIVATION OF BLOOD PRODUCTS” (Cerus Corporation, priority 2024, published 2026)",
  "key": {"[1]": {"test_system": "Klebsiella pneumoniae", "assay": "Klebsiella pneumoniae inactivation in platelet units with amotosalen/UVA, colony forming unit assay", "type": "cell-based", "protocol": "A study was performed to evaluate pathogen inactivation with treatment profiles from Example 1 and the bacterium Klebsiella pneumoniae. Units of platelets, prepared in 47% plasma/53% PAS at a volume of 250 mL (except the 70 μM study group at a volume of 200 mL), were inoculated with an overnight culture of Klebsiella pneumoniae (targeting the final concentration in unit of approximately 6 log CFU/mL) and dosed with the target amotosalen concentration (40 μM, 45 μM, 55 μM or 70 μM) in an illumination container of an INTERCEPT® Blood System processing set. The units were mixed well, and samples were collected from each unit prior to UV illumination to determine pre-treatment bacterial titers and amotosalen concentration. The Klebsiella-contaminated platelet units were then subjected to a UVA light dose of 3.8 J/cm^2 (3.2 J/cm^2 for the 200 mL units) using an illuminator with LED light sources having peak wavelength between 340-350 nm. Samples were collected post-illumination and both the pre- and post-UVA illumination samples were analyzed by standard colony forming unit assay to determine the level of bacterial inactivation.\n(§1) A similar study was performed with the bacterium Klebsiella pneumoniae. Four units of platelets in 47% plasma/53% PAS at a volume of 450 mL were inoculated in a 1.3 L illumination container with an overnight culture of Klebsiella pneumoniae at a target input pathogen concentration of approximately 8 log CFU/mL per unit and dosed with S-59 to achieve a target concentration of 55 μM. Samples were collected pre- and post-UVA illumination with a light dose of 6.3 J/cm^2 for determination of bacterial titers by standard colony forming unit assay and S-59 concentration by HPLC."}, "[2]": {"test_system": "bluetongue virus (BTV)", "assay": "Bluetongue virus inactivation in platelet units with amotosalen/UVA, plaque assay", "type": "cell-based", "protocol": "A study was performed to evaluate pathogen inactivation with treatment profiles from Example 1 and the non-enveloped virus bluetongue virus (BTV). Units of platelets, prepared in 47% plasma/53% PAS at a volume of 250 mL, were inoculated with BTV (targeting the final concentration in unit of approximately 4.5 log PFU/mL), and dosed with the target amotosalen concentration (40 μM, 50 μM, 60 μM, or 70 μM) in an illumination container of an INTERCEPT® Blood System processing set. The units were mixed well, and samples were collected from each unit prior to UV illumination to determine pre-treatment viral titers and amotosalen concentration. The BTV-contaminated platelet units were then subjected to a UVA light dose of 3.8 J/cm^2 using an illuminator with LED light sources having peak wavelength between 340-350 nm. Samples were collected post-illumination, and both the pre- and post-UVA illumination samples were analyzed by standard plaque assay to determine the level of virus inactivation.\n(§2) Pathogen inactivation of both viruses and bacteria was also tested using dosing device system-based quantized dosing of amotosalen and the treatment parameters described above. In one study, four units of platelets in 47% plasma/53% PAS at a higher 450 mL volume were inoculated in a 1.3 L illumination container with bluetongue virus (BTV) at a target pathogen input concentration of approximately 5.0 log PFU/mL per unit and dosed with amotosalen (S-59) to achieve at a target concentration of 55 μM. The units were mixed, and samples were collected from each unit prior to UV illumination to determine pre-treatment viral titers and S-59 concentration. The BTV-contaminated platelet units were then subjected to a UVA light dose of 6.3 J/cm^2 using an illuminator with LED light sources having peak wavelength between 340-350 nm. Samples were collected post-illumination, and both the pre- and post-UVA illumination samples were analyzed by standard plaque assay to determine the level of virus inactivation and by HPLC to determine the S-59 concentration."}, "[3]": {"assay": "S-59 photoconversion in platelets after dosing-device delivery, HPLC pre- and post-illumination", "type": "physicochemical", "details": "target 55 μM", "protocol": "After confirming the accuracy of S-59 dosing into PAS, the next study evaluated dosing of S-59 into a blood component, platelets suspended in plasma and PAS, and photoconversion of S-59 post-UVA treatment to determine residual S-59 levels and generate (e.g., plot) a volume to light dose curve, similar to Example 1. Different size illumination containers (1.0 L and 1.3 L) were evaluated with multiple different platelet volumes and multiple different UVA light doses used for photochemical treatment of each volume and container size.\nMore specifically, platelets suspended in […]/53% PAS at volumes of 200 mL, 250 mL or 300 mL in a 1.0 L illumination container, and 300 mL, 350 mL or 450 mL in a 1.3 L illumination container, were dosed at varying input volumes of the S-59 psoralen compound to achieve a target final concentration of 55 μM. Samples were taken to confirm pre-illumination S-59 concentration and each of the S-59 containing platelet volumes was then illuminated with different light doses as shown in the following Tables 8A and 8B using an illuminator device with LED light sources (e.g., narrow bandwidth) having peak wavelength between 340-350 nm.\nas §2, §1"}, "[4]": {"details": "device-dosed S-59 target 55 μM, 450 mL platelets, 1.3 L container, UVA 6.3 J/cm^2"}, "[5]": {"details": "target S-59 40 μM, 250 mL platelets, UVA 3.8 J/cm^2"}, "[6]": {"details": "target S-59 45 μM, 250 mL platelets, UVA 3.8 J/cm^2"}, "[7]": {"details": "target S-59 55 μM, 250 mL platelets, UVA 3.8 J/cm^2"}, "[8]": {"details": "target S-59 70 μM, 200 mL platelets, UVA 3.2 J/cm^2"}, "[9]": {"details": "target S-59 50 μM, 250 mL platelets, UVA 3.8 J/cm^2"}, "[10]": {"details": "target S-59 60 μM, 250 mL platelets, UVA 3.8 J/cm^2"}, "[11]": {"details": "target S-59 70 μM, 250 mL platelets, UVA 3.8 J/cm^2"}},
  "data": [
    {"smiles": "Cc1oc2c(C)c3oc(=O)cc(C)c3cc2c1COCCN", "note": "[S-59, 3-(2-aminoethoxymethyl)-2,5,9-trimethylfuro[3,2-g]chromen-7-one]", "values": [
      {"measurement": "Post-UVA titer", "setting": "[1]; [4]", "value": "0.3 ± 0.4", "unit": "cfu/mL"},
      {"measurement": "bacterial inactivation (log reduction)", "setting": "[1]; each of the four target amotosalen input concentrations (40, 45, 55, 70 μM)", "value": "greater than 5 logs"},
      {"measurement": "Log Reduction", "setting": "[1]; [5]", "value": "5.6 ± 0.8", "unit": "log"},
      {"measurement": "Post-UVA CFU/mL", "setting": "[1]; [5]", "value": "6.7 ± 11.5", "unit": "CFU/mL"},
      {"measurement": "Log Reduction", "setting": "[1]; [6]", "value": "5.9 ± 0.0", "unit": "log"},
      {"measurement": "Post-UVA CFU/mL", "setting": "[1]; [6]", "value": "0.2 ± 0.1", "unit": "CFU/mL"},
      {"measurement": "Log Reduction", "setting": "[1]; [7]", "value": "6.0 ± 0.1", "unit": "log"},
      {"measurement": "Post-UVA CFU/mL", "setting": "[1]; [7]", "value": "0.4 ± 0.5", "unit": "CFU/mL"},
      {"measurement": "Log Reduction", "setting": "[1]; [8]", "value": "≥6.1 ± 0.1", "unit": "log"},
      {"measurement": "Post-UVA CFU/mL", "setting": "[1]; [8]", "value": "0.03 ± 0.1", "unit": "CFU/mL"},
      {"measurement": "Log Reduction", "setting": "[2]; [4]", "value": "5.0±0.4 Log (pfu/mL)"},
      {"measurement": "Post-UVA titer", "setting": "[2]; [4]", "value": "0.7 ± 0.6", "unit": "pfu/mL"},
      {"measurement": "viral inactivation", "setting": "[2]; each of the four target amotosalen input concentrations (40, 50, 60, 70 μM)", "value": "greater than 4 logs"},
      {"measurement": "Log Reduction", "setting": "[2]; [5]", "value": "4.4 ± 0.1", "unit": "log"},
      {"measurement": "Post-UVA PFU/mL", "setting": "[2]; [5]", "value": "0.3 ± 0.1", "unit": "PFU/mL"},
      {"measurement": "Log Reduction", "setting": "[2]; [9]", "value": "4.4 ± 0.4", "unit": "log"},
      {"measurement": "Post-UVA PFU/mL", "setting": "[2]; [9]", "value": "0.1 ± 0.1", "unit": "PFU/mL"},
      {"measurement": "Log Reduction", "setting": "[2]; [10]", "value": ">4.6 ± 0.5", "unit": "log"},
      {"measurement": "Post-UVA PFU/mL", "setting": "[2]; [10]", "value": "0.02 ± 0.03", "unit": "PFU/mL"},
      {"measurement": "Log Reduction", "setting": "[2]; [11]", "value": "4.2 ± 0.1", "unit": "log"},
      {"measurement": "Post-UVA PFU/mL", "setting": "[2]; [11]", "value": "0.1 ± 0.2", "unit": "PFU/mL"},
      {"measurement": "Post-UVA S-59", "setting": "[3]; 1.0 L container, 200 mL platelets, 2.8 J/cm^2", "value": "5.22 ± 0.50", "unit": "µM"},
      {"measurement": "Post-UVA S-59", "setting": "[3]; 1.0 L container, 200 mL platelets, 3.0 J/cm^2", "value": "4.40 ± 0.64", "unit": "µM"},
      {"measurement": "Post-UVA S-59", "setting": "[3]; 1.0 L container, 200 mL platelets, 3.2 J/cm^2", "value": "3.71 ± 0.07", "unit": "µM"},
      {"measurement": "Post-UVA S-59", "setting": "[3]; 1.0 L container, 200 mL platelets, 3.4 J/cm^2", "value": "3.09 ± 0.18", "unit": "µM"},
      {"measurement": "Post-UVA S-59", "setting": "[3]; 1.0 L container, 250 mL platelets, 3.4 J/cm^2", "value": "4.25 ± 0.13", "unit": "µM"},
      {"measurement": "Post-UVA S-59", "setting": "[3]; 1.0 L container, 250 mL platelets, 3.6 J/cm^2", "value": "3.83 ± 0.74", "unit": "µM"},
      {"measurement": "Post-UVA S-59", "setting": "[3]; 1.0 L container, 250 mL platelets, 3.8 J/cm^2", "value": "3.81 ± 0.49", "unit": "µM"},
      {"measurement": "Post-UVA S-59", "setting": "[3]; 1.0 L container, 250 mL platelets, 4.0 J/cm^2", "value": "3.11 ± 1.18", "unit": "µM"},
      {"measurement": "Post-UVA S-59", "setting": "[3]; 1.0 L container, 300 mL platelets, 4.1 J/cm^2", "value": "7.13 ± 2.95", "unit": "µM"},
      {"measurement": "Post-UVA S-59", "setting": "[3]; 1.0 L container, 300 mL platelets, 4.3 J/cm^2", "value": "6.85 ± 3.00", "unit": "µM"},
      {"measurement": "Post-UVA S-59", "setting": "[3]; 1.0 L container, 300 mL platelets, 4.6 J/cm^2", "value": "2.86 ± 1.36", "unit": "µM"},
      {"measurement": "Post-UVA S-59", "setting": "[3]; 1.0 L container, 300 mL platelets, 4.8 J/cm^2", "value": "3.63 ± 1.66", "unit": "µM"},
      {"measurement": "Post-UVA S-59", "setting": "[3]; 1.3 L container, 300 mL platelets, 4.1 J/cm^2", "value": "4.64 ± 0.13", "unit": "µM"},
      {"measurement": "Post-UVA S-59", "setting": "[3]; 1.3 L container, 300 mL platelets, 4.3 J/cm^2", "value": "3.43 ± 1.30", "unit": "µM"},
      {"measurement": "Post-UVA S-59", "setting": "[3]; 1.3 L container, 350 mL platelets, 4.8 J/cm^2", "value": "3.54 ± 1.01", "unit": "µM"},
      {"measurement": "Post-UVA S-59", "setting": "[3]; 1.3 L container, 350 mL platelets, 5.0 J/cm^2", "value": "2.98 ± 0.91", "unit": "µM"},
      {"measurement": "Post-UVA S-59", "setting": "[3]; 1.3 L container, 450 mL platelets, 6.1 J/cm^2", "value": "3.79 ± 0.49", "unit": "µM"},
      {"measurement": "Post-UVA S-59", "setting": "[3]; 1.3 L container, 450 mL platelets, 6.3 J/cm^2", "value": "3.56 ± 0.37", "unit": "µM"},
      {"measurement": "Post-UVA S-59", "setting": "[3]; BTV-inoculated units, 450 mL platelets, 1.3 L container, 6.3 J/cm^2", "value": "3.0 ± 0.7", "unit": "µM"},
      {"measurement": "Post-UVA S-59", "setting": "[3]; K. pneumoniae-inoculated units, 450 mL platelets, 1.3 L container, 6.3 J/cm^2", "value": "3.2 ± 0.5", "unit": "µM"}
    ]}
  ]
}
